Measured values published in patent publication US9017722B2, “Pharmaceutical composition containing as an active ingredient 5-methyl-1-phenyl-2-(1H)-pyridone” (Intermune, Inc., priority 2001, dated 2015).

Test: Light exposure testing (color difference after light irradiation)
Format: physicochemical
Conditions: for Discoloration / Color difference (ΔE): D65 fluorescent lamp, 3570 Lx, exposure dose 1,200,000 Lx·hr, 25° C., room humidity; for Color difference (ΔE): CIELAB, reflected ray measurement; for light-stability (conclusion from Table 2): light exposure test, 1,200,000 Lx·hr
Procedure: Light exposure test of pirfenidone was carried out under the following condition, using “drug substance” obtained by packing 500 mg of milled pirfenidone drug substance in a heat-sealed transparent SP (Striped Package), “compressed drug substance” obtained by statically compressing 300 mg of milled pirfenidone drug substance, “the plain tablets” obtained in the above Example 1, and “the coated tablets” obtained in the above Example 1. […]
light irradiation apparatus: light stability test apparatus (LTL400-D5) (Nagano Science Equipment Mfg. Co., Ltd.) fluorescent light: D65 fluorescent lamp for color comparing and test temperature and humidity: 25° C., room humidity illumination intensity: 3570 Lx […]
coloring difference measure apparatus: Color analyzer TC-1800MK-II measurement method: reflected ray measurement color specification system: CIELAB measurement condition: second degree visual field

Row | Discoloration | Color difference (ΔE) | light-stability (conclusion from Table 2) (listed as pirfenidone compressed drug substance) | SMILES | light-stability (conclusion from Table 2) (listed as pirfenidone drug substance)
1 | remarkable | 3.62 | have a problem in light-stability | Cc1ccc(=O)n(-c2ccccc2)c1 [Compressed drug substance, 5-Methyl-1-phenyl-2-(1H)-pyridone] | 
2 | slight | 0.73 |  | Cc1ccc(=O)n(-c2ccccc2)c1 [Drug substance, 5-Methyl-1-phenyl-2-(1H)-pyridone] | remarkable color difference was not observed
